Test system: women with diminished ovarian reserve
Assay: Miscarriage rates in DHEA pregnancies at two centers versus 2004 national US IVF data (Example 8)
Type: in vivo, human
Procedure: Based on reported clinical experiences, the indications for DHEA supplementation have changed over the years, with women above age 40 since 2007 receiving routine supplementation, and younger women receiving supplementation only selectively.
DHEA supplementation involves the use of pharmaceutical grade micronized DHEA at a dosage of about 25 mg, three times daily. Patients are on DHEA supplementation for at least about two months prior to oocyte retrieval. This period of minimal pretreatment is based on the recognition that at two months pregnancy curves between DHEA pretreated and control patients statistically diverge. DHEA is maintained until pregnancy is established and is discontinued with positive pregnancy test.
Toronto West Fertility Associates, in Toronto, Canada, started utilizing DHEA independent of the use of DHEA at the Center for Human Reproduction (CHR) in New York, N.Y. In December of 2007, Toronto's medical director forwarded a detailed electronic record of the center's all-inclusive DHEA experience for analysis to CHR. This study, therefore, reports on the miscarriage rate of pregnancies, independently established under DHEA supplementation at both fertility centers, and compares these rates, age-stratified, to miscarriage rates reported in a national IVF data base in the U.S. for the year 2004. The definitions of clinical pregnancy, and of miscarriage, used herein follow the reporting requirements of this national data base, defining a clinical pregnancy as a pregnancy, confirmed by ultrasound examination.
Miscarriage rates of DHEA supplemented patients were compared with national IVF outcome statistics, reported annually under Federal mandate by the Centers for Disease Control. The data utilized for this study reflect 2004 United States national statistics. Pregnancy and miscarriage rates at the two centers were pooled after confirmation of homogeneity of variance. Common odds ratios of the pooled miscarriage rates among age stratified pregnant patients were compared between the pooled rates and the 2004 US national rates utilizing the Mantel-Haenszel common odds ratio. Statistical analyses were performed using SPSS Windows, standard version 15.0.
DHEA supplementation: After approval by the center's institutional review board, the Center for Human Reproduction (CHR) in New York City has been utilizing DHEA supplementation in women with diminished ovarian reserve since 2004. Based on reported clinical experiences, the indications for such supplementation have changed over the years: In initial stages, only older women, above age 42, were supplemented and only if they had failed at least one IVF cycle and less than 4 oocytes had been retrieved in confirmation of ovarian resistance to stimulation. By mid-2005, indications were expanded to all women above age 40 with evidence of ovarian resistance and a history of one failed prior IVF cycle. […] By mid-2006 FSH baseline criteria were changed from absolute FSH elevations to elevations in age-specific FSH levels.
DHEA supplementation in all patients involves oral, pharmaceutical grade micronized medication at a dosage of 25 mg, three times daily (TID). Only morbidly obese women receive an increased daily dosage of 100 mg and no such women were involved in this study. […] Limited patient volume and funding sources have prevented dose response studies and 25 mg DHEA TID daily has, therefore, remained the only standard treatment dosage. Patients receive at least two months of DHEA supplementation prior to oocyte retrieval, unless they conceive spontaneously during that time period. This minimum pretreatment period is based on the recognition that at two months pregnancy curves between DHEA pretreated and control patients statistically diverge. DHEA is maintained until pregnancy, and is discontinued with second positive pregnancy test. […]

C[C@]12CC[C@H](O)CC1=CC[C@@H]1[C@@H]2CC[C@]2(C)C(=O)CC[C@@H]12 [DHEA, Dehydroepiandrosterone]
clinical miscarriage rate, Toronto (33 DHEA pregnancies, five miscarriages): 15.2% | clinical miscarriage rate, New York (40 DHEA pregnancies, six miscarriages): 15.0% | Misc. Rate (%) (NY, age 35-37): 0.0% | Miscarriages (NY, age 35-37, 5 pregnancies): 0 | Misc. Rate (%) (NY, age 38-40): 0.0% | Miscarriages (NY, age 38-40, 6 pregnancies): 0 | Misc. Rate (%) (NY, age 41-42): 20.0% | Miscarriages (NY, age 41-42, 10 pregnancies): 2 | Misc. Rate (%) (NY, age <35): 10.0% | Miscarriages (NY, age <35, 10 pregnancies): 1 | Misc. Rate (%) (NY, age >42): 33.3% | Miscarriages (NY, age >42, 9 pregnancies): 3 | Misc. Rate (%) (TO, age 35-37): 10.0% | Miscarriages (TO, age 35-37, 10 pregnancies): 1 | Misc. Rate (%) (TO, age 38-40): 23.1% | Miscarriages (TO, age 38-40, 13 pregnancies): 3 | Miscarriages (TO, age 41-42, 0 pregnancies): 0 | Misc. Rate (%) (TO, age <35): 14.3% | Miscarriages (TO, age <35, 7 pregnancies): 1 | Misc. Rate (%) (TO, age >42): 0.0% | Miscarriages (TO, age >42, 3 pregnancies): 0 | Misc. Rate (%) (TOTAL both centers, age 35-37): 6.7% | Misc. Rate (%) (TOTAL both centers, age 38-40): 15.8% | Misc. Rate (%) (TOTAL both centers, age 41-42): 20.0% | Misc. Rate (%) (TOTAL both centers, age <35): 11.8% | Misc. Rate (%) (TOTAL both centers, age >42): 25.0% | reduction in miscarriage risk (first statistical model (age-stratified odds ratio)): approximately 50% | decline in miscarriages, depending on statistical method (versus national US IVF pregnancies): 50-80%
